This note sets out measurements from US9150526B2, “Biaryl-propionic acid derivatives and their use as pharmaceuticals” (SANOFI, priority 2013, dated 2015).

In this assay the test system is Recombinant human cathepsin A. Briefly: Cathepsin A inhibitory activity (Bodipy FL-bradykinin substrate, microfluidic capillary electrophoresis). Format: biochemical. The note with it: read-out: CATH A IC50. How it is done: Pharmacological Tests a) Cathepsin a Inhibitory Activity
Recombinant human cathepsin A (residues 29-480, with a C-terminal 10-His tag; R&D Systems, #1049-SE) was proteolytically activated with recombinant human cathepsin L (R&D Systems, #952-CY). Briefly, cathepsin A was incubated at 10 μg/ml with cathepsin L at 1 μg/ml in activation buffer (25 mM 2-(morpholin-4-yl)-ethanesulfonic acid (MES), pH 6.0, containing 5 mM dithiothreitol (DTT)) for 15 min at 37° C.
The activated cathepsin A was diluted in assay buffer (25 mM MES, pH 5.5, containing 5 mM DTT) and mixed with the test compound (dissolved in assay buffer containing (v/v) 3% DMSO) or, in the control experiments, with the vehicle in a multiple assay plate. After incubation for 15 min at room temperature, as substrate then bradykinin carrying an N-terminal ®Bodipy FL (4,4-difluoro-5,7-dimethyl-4-bora-3a,4a-diaza-s-indacene-3-propionyl) label (JPT Peptide Technologies GmbH; dissolved in assay buffer) was added to the mixture. The final concentration of cathepsin A was 833 ng/ml and the final concentration of labeled bradykinin 2 μM. After incubation for 15 min at room temperature the reaction was stopped by the addition of stop buffer (130 mM 2-(4-(2-hydroxy-ethyl)-piperazin-1-yl)-ethanesulfonic acid, pH 7.4, containing (v/v) 0.013% ®Triton X-100, 0.13% Coating Reagent 3 (Caliper Life Sciences), 6.5% DMSO and 20 μM ebelactone B (Sigma, # E0886)).
Uncleaved substrate and product were then separated by a microfluidic capillary electrophoresis on a LabChip® 3000 Drug Discovery System (12-Sipper-Chip; Caliper Life Sciences) and quantified by determination of the respective peak areas. Substrate turnover was calculated by dividing product peak area by the sum of substrate and product peak areas, and the enzyme activity and the inhibitory effect of the test compound thus quantified.

For the molecule `COc1ccc(C)cc1-c1cc(Cl)cc(C(CC(=O)O)c2nnc(C)o2)c1` (stereo not drawn) [compound 169], the IC50 (in general, the concentration needed to halve the response being measured) was 0.017 µM.

As to `COc1ccc(S(C)(=O)=O)cc1-c1cc(Cl)cc(C(CC(=O)O)c2nnc(C)o2)c1` (stereo not drawn) [compound 170], the half-inhibitory concentration (IC50) is 0.109 µM.

Take `COc1cccc(C(=O)N2CCCC2)c1-c1cc(Cl)cc(C(CC(=O)O)c2nnc(C)o2)c1` (stereo not drawn) [compound 171]: the half-inhibitory concentration (IC50) turned out to be 4.21 µM.

On to `COc1ccc(-c2cc(Cl)cc(C(CC(=O)O)c3nnc(C)o3)c2)c(OC)c1` (stereo not drawn) [compound 172], for which the IC50 turned out to be 0.033 µM.

Turning to `COc1cccc(C(=O)N2CCCC2)c1-c1cc(F)cc(C(CC(=O)O)c2nnc(C)o2)c1` (stereo not drawn) [compound 174], the half-maximal inhibitory concentration (IC50) was 5.26 µM.

For `CCOc1ccccc1-c1cc(F)cc(C(CC(=O)O)c2nnc(C)o2)c1` (stereo not drawn) [compound 175], the IC50 was 0.104 µM.

With `COc1ccccc1-c1cc(Cl)cc(C(CC(=O)O)c2nnc(C)o2)c1` (stereo not drawn) [compound 176], the IC50 was 0.01 µM.

In the case of `CCOc1ccccc1-c1cc(Cl)cc(C(CC(=O)O)c2nnc(C)o2)c1` (stereo not drawn) [compound 177], the half-inhibitory concentration (IC50) stood at 0.024 µM.

As to `COc1ccc(S(C)(=O)=O)cc1-c1cc(F)cc(C(CC(=O)O)c2nnc(C)o2)c1` (stereo not drawn) [compound 178], the IC50 was 0.588 µM.

Consider `COc1cccc(F)c1-c1cc(F)cc(C(CC(=O)O)c2nnc(C)o2)c1` (stereo not drawn) [compound 179], for which the half-maximal inhibitory concentration (IC50) turned out to be 0.067 µM.

Regarding `COc1ccc(OC)c(-c2cncc(C(CC(=O)O)c3nnc(C)o3)c2)c1` (stereo not drawn) [compound 180], the half-maximal inhibitory concentration (IC50) was determined as 3.52 µM.

`COc1ccc(C)cc1-c1cncc(C(CC(=O)O)c2nnc(C)o2)c1` (stereo not drawn) [compound 181]: the IC50 was 2.22 µM.

As for `COc1ccc(C(C)(C)C)cc1-c1cncc(C(CC(=O)O)c2nnc(C)o2)c1` (stereo not drawn) [compound 182], the IC50 is 0.452 µM.

For `COc1ccc(C(C)C)cc1-c1cncc(C(CC(=O)O)c2nnc(C)o2)c1` (stereo not drawn) [compound 183], the IC50 amounted to 1.03 µM.

Regarding `COc1cccc(OC)c1-c1cncc(C(CC(=O)O)c2nnc(C)o2)c1` (stereo not drawn) [compound 184], the half-inhibitory concentration (IC50) amounted to 0.16 µM.

On to `COc1ccc(C(C)C)cc1-c1cccc([C@@H](CC(=O)O)c2nnc(C)o2)c1` [compound 185], for which the half-inhibitory concentration (IC50) was determined as 0.027 µM.

On to `COc1cc(C)cc(OC)c1-c1cncc(C(CC(=O)O)c2nnc(C)o2)c1` (stereo not drawn) [compound 186], for which the half-maximal inhibitory concentration (IC50) turned out to be 0.343 µM.

For the molecule `COc1ccccc1-c1cncc(C(CC(=O)O)c2nnc(C)o2)c1` (stereo not drawn) [compound 190], the IC50 worked out at 5.8 µM.

On to `COc1ccc(Cl)cc1-c1cncc(C(CC(=O)O)c2nnc(C)o2)c1` (stereo not drawn) [compound 191], for which the IC50 is 3.91 µM.

As for `COc1ccc(F)cc1-c1cncc(C(CC(=O)O)c2nnc(C)o2)c1` (stereo not drawn) [compound 192], the half-inhibitory concentration (IC50) was 7.07 µM.

Take `CCOc1ccccc1-c1cncc(C(CC(=O)O)c2nnc(C)o2)c1` (stereo not drawn) [compound 193]: the IC50 came out at 4.27 µM.

For `COc1ccc(-c2cncc(C(CC(=O)O)c3nnc(C)o3)c2)c(OC)c1` (stereo not drawn) [compound 194], the IC50 is 7.14 µM.

Regarding `COc1cccc(F)c1-c1cncc(C(CC(=O)O)c2nnc(C)o2)c1` (stereo not drawn) [compound 195], the IC50 was determined as 3.9 µM.

As to `COc1ccc(OC(F)(F)F)cc1-c1cncc(C(CC(=O)O)c2nnc(C)o2)c1` (stereo not drawn) [compound 197], the half-maximal inhibitory concentration (IC50) came to 4.76 µM.

`COc1cccc(Cl)c1-c1cncc(C(CC(=O)O)c2nnc(C)o2)c1` (stereo not drawn) [compound 199]: the IC50 stood at 3.56 µM.

With `COc1cc(F)ccc1-c1cc(C(CC(=O)O)c2nnc(C)o2)cc(C(F)(F)F)c1` (stereo not drawn) [compound 200], the IC50 stood at 0.035 µM.

In the case of `COc1ccc(OC)c(-c2cc(C(CC(=O)O)c3nnc(C)o3)cc(C(F)(F)F)c2)c1` (stereo not drawn) [compound 201], the IC50 worked out at 0.014 µM.

On to `COc1ccc(C)cc1-c1cc(C(CC(=O)O)c2nnc(C)o2)cc(C(F)(F)F)c1` (stereo not drawn) [compound 202], for which the IC50 is 0.017 µM.

On to `COc1ccc(C(C)(C)C)cc1-c1cc(C(CC(=O)O)c2nnc(C)o2)cc(C(F)(F)F)c1` (stereo not drawn) [compound 203], for which the concentration for half-maximal inhibition (IC50) was 0.017 µM.

On to `COc1ccc(C(C)C)cc1-c1cc(C(CC(=O)O)c2nnc(C)o2)cc(C(F)(F)F)c1` (stereo not drawn) [compound 204], for which the IC50 is 0.031 µM.

For `COc1cccc(OC)c1-c1cc(C(CC(=O)O)c2nnc(C)o2)cc(C(F)(F)F)c1` (stereo not drawn) [compound 205], the IC50 turned out to be 0.002 µM.

As to `COc1cc(C)cc(OC)c1-c1cc(C(CC(=O)O)c2nnc(C)o2)cc(C(F)(F)F)c1` (stereo not drawn) [compound 206], the IC50 was 0.006 µM.

Turning to `COc1ccc2c(c1-c1cc(C(CC(=O)O)c3nnc(C)o3)cc(C(F)(F)F)c1)OC(C)(C)C2` (stereo not drawn) [compound 207], the IC50 worked out at 0.01 µM.

`Cc1nnc(C(CC(=O)O)c2cc(-c3ccccc3OC(F)(F)F)cc(C(F)(F)F)c2)o1` (stereo not drawn) [compound 208]: the IC50 was determined as 0.065 µM.

Take `COc1ccc(Cl)cc1-c1cc(C(CC(=O)O)c2nnc(C)o2)cc(C(F)(F)F)c1` (stereo not drawn) [compound 209]: the half-maximal inhibitory concentration (IC50) is 0.017 µM.

Consider `CCOc1ccccc1-c1cc(C(CC(=O)O)c2nnc(C)o2)cc(C(F)(F)F)c1` (stereo not drawn) [compound 210], for which the 50% inhibitory concentration (IC50) is 0.014 µM.

With `COc1ccc(-c2cc(C(CC(=O)O)c3nnc(C)o3)cc(C(F)(F)F)c2)c(OC)c1` (stereo not drawn) [compound 211], the half-maximal inhibitory concentration (IC50) is 0.023 µM.

As to `COc1cccc(F)c1-c1cc(C(CC(=O)O)c2nnc(C)o2)cc(C(F)(F)F)c1` (stereo not drawn) [compound 212], the IC50 turned out to be 0.008 µM.

Consider `COc1ccc(OC(F)(F)F)cc1-c1cc(C(CC(=O)O)c2nnc(C)o2)cc(C(F)(F)F)c1` (stereo not drawn) [compound 213], for which the IC50 amounted to 0.051 µM.

Consider `COc1cccc(Cl)c1-c1cc(C(CC(=O)O)c2nnc(C)o2)cc(C(F)(F)F)c1` (stereo not drawn) [compound 214], for which the 50% inhibitory concentration (IC50) came out at 0.017 µM.

For the molecule `COc1ccc(S(C)(=O)=O)cc1-c1cc(C(CC(=O)O)c2nnc(C)o2)cc(C(F)(F)F)c1` (stereo not drawn) [compound 215], the IC50 was 0.13 µM.

As for `COc1cccc(C(=O)N2CCCC2)c1-c1cc(C(CC(=O)O)c2nnc(C)o2)cc(C(F)(F)F)c1` (stereo not drawn) [compound 216], the IC50 amounted to 1.46 µM.

In the case of `COc1ccccc1-c1cc(C(CC(=O)O)c2nnc(C)o2)cc(C(F)(F)F)c1` (stereo not drawn) [compound 217], the IC50 was determined as 0.013 µM.

In the case of `COc1ccc(F)cc1-c1cc(C(CC(=O)O)c2nnc(C)o2)cc(C(F)(F)F)c1` (stereo not drawn) [compound 218], the IC50 came out at 0.012 µM.

On to `COc1cccc(CO)c1-c1cc(C(CC(=O)O)c2nnc(C)o2)cc(C(F)(F)F)c1` (stereo not drawn) [compound 219], for which the 50% inhibitory concentration (IC50) was found to be 0.073 µM.

Turning to `COc1c(C)cccc1-c1cc(C(CC(=O)O)c2nnc(C)o2)cc(C(F)(F)F)c1` (stereo not drawn) [compound 220], the IC50 worked out at 0.053 µM.

Regarding `COc1ccc(CO)cc1-c1cc(C(CC(=O)O)c2nnc(C)o2)cc(C(F)(F)F)c1` (stereo not drawn) [compound 221], the 50% inhibitory concentration (IC50) is 0.022 µM.

Turning to `COc1ccc(C(C)(C)C#N)cc1-c1cc(F)cc(C(CC(=O)O)c2nnc(C)o2)c1` (stereo not drawn) [compound 222], the IC50 was 0.004 µM.
